These results are taken from ChEMBL document CHEMBL1134442, “Novel selective PDE4 inhibitors. 2. Synthesis and structure-activity relationships of 4-aryl-substituted cis-tetra- and cis-hexahydrophthalazinones” (J Med Chem, 2001).

One assay has as its target Phosphodiesterase 3 (Homo sapiens, UniProt Q14432+Q13370). Description: Inhibitory activity of the against phosphodiesterase 3 (PDE3); No significant inhibitory activity at pIC50. The format is protein assay.
A further assay concerns the target Phosphodiesterase 4 (Homo sapiens, UniProt P27815+Q08499+Q07343+Q08493). The assay is described as follows: Inhibition of phosphodiesterase 4 (PDE4) in human neutrophils. The class given is protein assay.

The term pIC50 denotes −log10 of the IC50, conventionally taken in molar units. Higher therefore signals a small IC50. Regarding `COc1ccc(C2=NN(C3CCCCCC3)C(=O)C3CC=CCC23)cc1OCCCCOc1ccc(-n2ccnc2)cc1` (stereo not given), the pIC50 is listed as under 5.5 against Phosphodiesterase 3 and 9.7 at Phosphodiesterase 4.

On Phosphodiesterase 3, `COc1ccc([C@@H]2CNC(=O)C2)cc1OC1CCCC1` [(-)-ROLIPRAM] yielded a pIC50 of under 5.5.

Regarding `CCOc1ccc(C2=NN(Cc3ccccc3)C(=O)C3CCCCC23)cc1OCC` (stereo not given), the pIC50 against Phosphodiesterase 3 is listed as under 5.5; at Phosphodiesterase 4, 7.8.

In the case of `COc1ccc(C2=NN(C3CCCCCC3)C(=O)C3CC=CCC23)cc1OC` (stereo not given), the pIC50 was under 5.5 against Phosphodiesterase 3 and 9.1 at Phosphodiesterase 4.

As for `COc1ccc(C2=NN(C3CCCCCC3)C(=O)C3CC=CCC23)cc1OCCN(C)C` (stereo not given), the pIC50 on Phosphodiesterase 3 is under 5.5; against Phosphodiesterase 4, 7.2.

As for `COc1cccc(C2=NN(Cc3ccccc3)C(=O)C3CCCCC23)c1` (stereo not given), the pIC50 on Phosphodiesterase 3 is given as under 5.5; on Phosphodiesterase 4 it was 5.6.

`COc1ccc(C2=NN(Cc3ccccc3)C(=O)C3CCCCC23)cc1OC` (stereo not given): the pIC50 on Phosphodiesterase 3 is under 5.5; on Phosphodiesterase 4 it was 8.1.

Take `COc1ccc(C2=NN(C3CCCCCC3)C(=O)C3CC=CCC23)cc1OCC1CC1` (stereo not given): the pIC50 against Phosphodiesterase 3 was under 5.5; against Phosphodiesterase 4 it was 9.

Take `COc1ccc(C2=NN(C3CCCCCC3)C(=O)C3CC=CCC23)cc1O` (stereo not given): the negative-log IC50 (pIC50) was under 5.5 against Phosphodiesterase 3 and 7.4 against Phosphodiesterase 4.

Consider `COc1ccc(C2=NN(C3CCCCCC3)C(=O)C3CC=CCC23)cc1OCCCCC(=O)O` (stereo not given), for which the negative-log IC50 (pIC50) at Phosphodiesterase 3 is on record as under 5.5; against Phosphodiesterase 4 it was 7.8.

In the case of `COc1ccc(C2=NN(Cc3ccccc3)C(=O)C3CCCCC23)cc1` (stereo not given), the values for the pIC50 against Phosphodiesterase 3 and on Phosphodiesterase 4 were under 5.5 and 5.9, respectively.

Take `COc1ccc(C2=NN(Cc3ccccc3)C(=O)C3CCCCC23)cc1OC1CCCC1` (stereo not given): the pIC50 was under 5.5 against Phosphodiesterase 3 and 8 against Phosphodiesterase 4.

`COc1ccc(C2=NN(C3CCCCCC3)C(=O)C3CC=CCC23)cc1OCCCCCc1ccccc1` (stereo not given): the negative logarithm of the IC50 (pIC50) against Phosphodiesterase 3 was under 5.5; at Phosphodiesterase 4, 8.3.

Regarding `COc1ccc(C2=NN(C3CCCCCC3)C(=O)C3CC=CCC23)cc1OCCCCCCOc1ccc(C(=O)O)cc1` (stereo not given), the pIC50 on Phosphodiesterase 3 is reported as under 5.5; at Phosphodiesterase 4, 8.7.

In the case of `COc1ccc(C2=NN(C3CCCCCC3)C(=O)C3CC=CCC23)cc1OCCCCCCOc1ccc(C(N)=O)cc1` (stereo not given), the values for the pIC50 at Phosphodiesterase 3 and against Phosphodiesterase 4 were under 5.5 and 9.5, respectively.

Consider `COc1ccc(C2=NN(C3CCCCCC3)C(=O)C3CC=CCC23)c2c1OC(C)(C)C2` (stereo not given), for which the pIC50 at Phosphodiesterase 3 is under 5.5; on Phosphodiesterase 4, 9.

As for `COc1ccc(C2=NN(C3CCCCCC3)C(=O)C3CC=CCC23)cc1OCC(=O)O` (stereo not given), the pIC50 at Phosphodiesterase 3 was under 5.5; against Phosphodiesterase 4 it was 5.6.

For the molecule `COc1ccc(C2=NN(C3CCCCCC3)C(=O)C3CC=CCC23)cc1OCCCCn1ccnc1` (stereo not given), the pIC50 against Phosphodiesterase 3 was under 5.5; against Phosphodiesterase 4, 8.1.

For `COc1ccc(C2=NN(C3CCCCCC3)C(=O)C3CC=CCC23)cc1OC(F)F` (stereo not given), the pIC50 against Phosphodiesterase 3 was under 5.5; at Phosphodiesterase 4, 8.8.

In the case of `COc1ccc(C2=NN(C3CCCCCC3)C(=O)C3CC=CCC23)cc1OCCO` (stereo not given), the negative logarithm of the IC50 (pIC50) is under 5.5 against Phosphodiesterase 3 and 8.4 against Phosphodiesterase 4.

For the molecule `COc1ccc(C2=NN(C3CCCCCC3)C(=O)C3CC=CCC23)cc1OCCCCOc1ccc(-c2nn[nH]n2)cc1` (stereo not given), the pIC50 at Phosphodiesterase 3 is given as under 5.5; against Phosphodiesterase 4 it was 9.2.

Regarding `COc1ccc(C2=NN(C3CCCCCC3)C(=O)C3CC=CCC23)cc1OCCCC(=O)O` (stereo not given), the pIC50 was under 5.5 against Phosphodiesterase 3 and 7.2 on Phosphodiesterase 4.

On to `COc1ccc(C2=NN(Cc3ccccc3)C(=O)C3CCCCC23)c2c1OC1(CCCC1)C2` (stereo not given), for which the pIC50 was under 5.5 against Phosphodiesterase 3 and 8.6 at Phosphodiesterase 4.

As for `O=C1C2CCCCC2C(c2ccccc2)=NN1Cc1ccccc1` (stereo not given), the pIC50 against Phosphodiesterase 3 is given as under 5.5; on Phosphodiesterase 4, under 5.

Turning to `O=C1C2CCCCC2C(c2ccc3c(c2)OCO3)=NN1Cc1ccccc1` (stereo not given), the pIC50 at Phosphodiesterase 3 is given as under 5.5; at Phosphodiesterase 4, 5.8.

As to `O=C1C2CCCCC2C(c2cccc(Cl)c2)=NN1Cc1ccccc1` (stereo not given), the pIC50 is on record as under 5.5 against Phosphodiesterase 3 and under 5 against Phosphodiesterase 4.

Turning to `COc1ccc([C@]2(C#N)CC[C@@H](C(=O)O)CC2)cc1OC1CCCC1` [CILOMILAST], the pIC50 at Phosphodiesterase 3 is reported as under 5.5.

In the case of `COc1ccc(C2=NN(C3CCCCCC3)C(=O)C3CC=CCC23)cc1OCCCCN(C)C` (stereo not given), the pIC50 is under 5.5 against Phosphodiesterase 3 and 7.4 against Phosphodiesterase 4.

For `COc1cc(C2=NN(Cc3ccccc3)C(=O)C3CCCCC23)ccc1OC1CCCC1` (stereo not given), the pIC50 against Phosphodiesterase 3 is listed as under 5.5; against Phosphodiesterase 4, under 5.

Turning to `COc1ccc(C2=NN(C3CCCCCC3)C(=O)C3CC=CCC23)cc1Cl` (stereo not given), the pIC50 against Phosphodiesterase 3 is given as under 5.5; on Phosphodiesterase 4, 8.

Consider `COc1ccc(C2=NN(C3CCCCCC3)C(=O)C3CC=CCC23)cc1OCCCCCCOc1ccccc1` (stereo not given), for which the results for the pIC50 against Phosphodiesterase 3 and against Phosphodiesterase 4 were under 5.5 and 8, respectively.

As for `COc1ccc(C2=NN(C3CCCCCC3)C(=O)C3CC=CCC23)cc1OCCCCOc1ccc(C(=O)O)cc1` (stereo not given), the figures for the pIC50 against Phosphodiesterase 3 and at Phosphodiesterase 4 were under 5.5 and 9.5, respectively.

For the molecule `COc1ccc(C2=NN(C3CCCCCC3)C(=O)C3CC=CCC23)cc1OC1CCCC1` (stereo not given), the pIC50 against Phosphodiesterase 3 is under 5.5; against Phosphodiesterase 4, 8.9.

In the case of `COc1ccc(C2=NN(C3CCCCCC3)C(=O)C3CC=CCC23)cc1OCCCCOc1ccc(C#N)cc1` (stereo not given), the figures for the pIC50 against Phosphodiesterase 3 and on Phosphodiesterase 4 were under 5.5 and 8.6, respectively.

As for `COc1ccc(C2=NN(C3CCCCCC3)C(=O)C3CC=CCC23)c2c1OC1(CCCC1)C2` (stereo not given), the pIC50 is on record as under 5.5 on Phosphodiesterase 3 and 9.2 at Phosphodiesterase 4.

Turning to `COc1ccc(C2=NN(C3CCCCCC3)C(=O)C3CC=CCC23)cc1OCCCCn1cnc2ncncc21` (stereo not given), the values for the pIC50 on Phosphodiesterase 3 and on Phosphodiesterase 4 were under 5.5 and 7.6, respectively.
